IC50 data for 20 compounds are collected here from patent publication US10316038B2, “Pyrrolopyrimidine ITK inhibitors for treating inflammation and cancer” (ACLARIS THERAPEUTICS, INC., priority 2017, dated 2019).

In test [1] the target is T1, ITK (Homo sapiens, UniProt Q08881).
T1 sequence (Q08881 1-620): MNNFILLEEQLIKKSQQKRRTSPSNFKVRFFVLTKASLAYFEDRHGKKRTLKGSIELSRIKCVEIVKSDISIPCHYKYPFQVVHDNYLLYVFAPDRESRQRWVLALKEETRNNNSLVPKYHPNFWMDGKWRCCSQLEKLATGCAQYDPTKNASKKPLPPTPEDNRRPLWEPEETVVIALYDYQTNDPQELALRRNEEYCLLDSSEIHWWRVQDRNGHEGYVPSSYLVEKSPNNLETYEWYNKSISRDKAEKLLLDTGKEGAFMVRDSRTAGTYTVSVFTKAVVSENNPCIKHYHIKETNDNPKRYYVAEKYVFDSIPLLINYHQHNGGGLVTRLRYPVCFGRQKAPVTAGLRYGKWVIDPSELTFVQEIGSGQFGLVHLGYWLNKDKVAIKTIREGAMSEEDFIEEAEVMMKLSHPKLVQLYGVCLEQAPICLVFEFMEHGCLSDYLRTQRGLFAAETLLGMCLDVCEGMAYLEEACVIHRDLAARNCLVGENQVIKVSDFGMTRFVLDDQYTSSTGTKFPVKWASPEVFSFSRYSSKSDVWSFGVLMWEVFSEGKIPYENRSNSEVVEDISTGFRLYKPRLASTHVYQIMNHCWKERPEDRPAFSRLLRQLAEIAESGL
As to the kind of experiment: ITK inhibitor binding potency (LanthaScreen competitive binding assay). The settings on record: TR-FRET competitive binding, 10 nM ITK, 50 nM kinase tracer-236; pre-incubation condition not given; read-out: ITK Inhibition IC50. An excerpt:
The ability of candidate compounds to interact with ITK is quantitated by a competitive binding assay using the LanthaScreen technology developed by Life Technologies. This assay is based on the binding of a proprietary, Alexa Fluor™ 647-labeled, ATP-competitive kinase inhibitor (kinase tracer-236) to the ITK expression construct in the presence of a Europium-conjugated antibody, resulting in a FRET (fluorescence resonance energy transfer) signal. Displacement of the kinase tracer by compound results in a lower emission ratio upon excitation of the Europium chelate. Candidate compounds are designed as potential irreversible inhibitors of ITK, capable of ligating to an active site cysteine residue resulting in time dependent covalent binding. The time dependent nature of irreversible inhibition is investigated by performing the binding assay with and without a pre-incubation of compound and ITK. […] The inhibitory potency of candidate compounds is measured in 20 mM HEPES pH 7.5, 10 mM MgCl2, 0.01% BSA, 0.0005% Tween-20, and 2% DMSO in the presence of 10 nM ITK, 2 nM Eu-anti-GST antibody, and 50 nM kinase tracer-236 using a 384-well plate format. Background signal is defined in the absence of ITK and uninhibited signal is defined in the presence of vehicle (2% DMSO) alone. Compounds were evaluated in an 11 point dose-response ranging from 20 uM to 0.34 nM. The binding assays are performed under two preincubation conditions to evaluate time dependence of inhibition. For the pre-incubation assay, ITK and Eu-anti-GST antibody are pre-incubated with compound or vehicle for two hours prior to the addition of kinase tracer. The non-preincubated assay is run under conditions where ITK and Eu-anti-GST antibody are added to a mixture of compound and kinase tracer. IC50 values of compounds are determined using a 4 parameter logistical fit of emission ratio as a function of the concentration of compound.
Background: TR-FRET usually uses a lanthanide donor and a delayed reading to cut background.

The test system of test [2] is ITK phosphorylation of its substrate, PLCγ1, at Y783. Kind of test: ITK target modulation assay (phospho-Y783 PLCγ1 immunoblot in Jurkat T cells). The format is cell-based. The settings on record: Homo sapiens, Jurkat, 2 h, 2 hours compound, CD3/CD28 Dynabeads stimulation 100 sec, anti-phospho-Y783 PLCγ1 immunoblot, read-out: PLC-γ Inhibition IC50. The protocol:
Target modulation was based upon the ability of a compound to inhibit ITK phosphorylation of its substrate, PLCγ1, at […]. Human Jurkat T cells were placed in snap-cap polypropylene tubes at 4 million per tube in 800 μL medium (RPMI1640 with 10% heat inactivated serum and […] 2-mercaptoethanol and supplemented with glutamine/penicillin/streptomycin). Compounds were added as 100 μL of 10× working stock solutions in medium with 1% DMSO (or medium with 1% DMSO for controls) and placed in a 37° C. incubator for 2 hours. Stimulation was carried out using CD3/CD28 Dynabeads to activate the T cell receptor and mimic antigen presenting cells. Beads were added for 100 sec at a ratio of 1 bead per cell, in 100 μL medium (or medium alone for unstimulated control). Starting at 70 sec, cells and beads were pelleted in a microfuge for 15 sec, the supernatant aspirated, and 50 μL lysis buffer was added per tube and mixed with the pellet at the 100 sec time point. Tubes were placed on a rotator for 30 min at 4° C., and cell debris was pelleted in a microfuge. Supernatant was mixed 1:1 with 2× Sample Buffer and subjected to SDS-polyacrylamide gel electrophoresis. After transfer to nitrocellulose, immunoblotting was done with anti-phospho-[…] PLCγ1 antibody. Immunoblots were visualized with ECL using horseradish peroxidase conjugated secondary antibody.

As usually defined, the IC50 is the concentration that gives 50% inhibition. Turning to `C=CC(=O)N(C)c1cncc(-c2cnc3[nH]cc(-c4cccc(C#N)c4)c3c2)c1` [Example 66, N-(5-(3-(3-cyano-phenyl)-1H-pyrrolo[2,3-b]-pyridin-5-yl)-pyridin-3-yl)-N-methylacrylamide], the IC50 in test [1] is at most 100 nM; in test [2], at most 1000 nM.
For `CN(C)C/C=C/C(=O)Nc1cc(-c2cnc3[nH]cc(-c4cccc(C#N)c4)c3c2)cc(C(F)(F)F)c1` [Example 1, (E)-N-(3-(3-(3-Cyanophenyl)-1H-pyrrolo[2,3-b]pyridin-5-yl)-5-(trifluoromethyl)phenyl)-4-(dimethylamino)but-2-enamide], in that order: at most 100 nM and at most 1000 nM.
For `COc1cc(NC(=O)/C=C/CN(C)C)cc(-c2cnc3[nH]cc(-c4ccncn4)c3c2)c1` [Example 52, (E)-4-(dimethyl-amino)-N-(3-methoxy-5-(3-(pyrimidin-4-yl)-1H-pyrrolo-[2,3-b]pyridin-5-yl)phenyl)but-2-enamide], in that order: at most 100 nM and 1000 to 5000 nM.
As for `Cc1cc(-c2c[nH]c3ncc(-c4cncc(NC(=O)/C=C/CN(C)C)c4)cc23)ccn1` [Example 42, (E)-4-(dimethyl-amino)-N-(5-(3-(2-methylpyridin-4-yl)-1H-pyrrolo-[2,3-b]pyridin-5-yl)pyridin-3-yl)-but-2-enamide], the IC50 is at most 100 nM in test [1] and at most 1000 nM in test [2].
For `C=CC(=O)Nc1cncc(-c2cnc3[nH]cc(-c4ccnc(OC)c4)c3c2)c1` [Example 17, N-(5-(3-(2-methoxypyridin-4-yl)-1H-pyrrolo-[2,3-b]pyridin-5-yl)pyridin-3-yl)-acrylamide] the same measures were at most 100 nM and at most 1000 nM.
With `CN(C)C/C=C/C(=O)Nc1cncc(-c2cnc3[nH]cc(-c4cccc(C#N)c4)c3c2)c1` [Example 20, (E)-N-(5-(3-(3-cyanophenyl)-1H-pyrrolo[2,3-b]pyridin-5-yl)pyridin-3-yl)-4-(dimethyl-amino)but-2-enamide], the results for the IC50 in test [1] and in test [2] were at most 100 nM and at most 1000 nM, respectively.
For `C=CC(=O)N(C)c1cc(OC)cc(-c2cnc3[nH]cc(-c4cccc(C#N)c4)c3c2)c1` [Example 65, N-(3-(3-(3-cyano-phenyl)-1H-pyrrolo[2,3-b]-pyridin-5-yl)-5-methoxyphenyl)-N-methylacryl-amide] the same measures were at most 100 nM and at most 1000 nM.
For the compound `CNc1nccc(-c2c[nH]c3ncc(-c4cc(NC(=O)/C=C/CN(C)C)cc(OC)c4)cc23)n1` [Example 46, (E)-4-(dimethyl-amino)-N-(3-methoxy-5-(3-(2-(methylamino)-pyrimidin-4-yl)-1H-pyrrolo[2,3-b]-pyridin-5-yl)-phenyl)but-2-enamide], the IC50 was at most 100 nM in test [1] and 1000 to 5000 nM in test [2].
For `COc1cc(NC(=O)/C=C/CN(C)C)cc(-c2cnc3[nH]cc(-c4ccncc4)c3c2)c1` [Example 53, (E)-4-(dimethyl-amino)-N-(3-methoxy-5-(3-(pyridin-4-yl)-1H-pyrrolo[2,3-b]pyridin-5-yl)phenyl)but-2-enamide], in that order: at most 100 nM and at most 1000 nM.
For the compound `C=CC(=O)Nc1cc(-c2cnc3[nH]cc(-c4cccc(C)c4)c3c2)cc(C(F)(F)F)c1` [Example 59, N-(3-(3-(m-tolyl)-1H-pyrrolo[2,3-b]-pyridin-5-yl)-5-(trifluoromethyl)-phenyl)acrylamide], the results for the half-inhibitory concentration (IC50) in test [1] and in test [2] were at most 1000 nM and over 5000 nM, respectively.
In the case of `C=CC(=O)Nc1cc(-c2cnc3[nH]cc(-c4cccc(C#N)c4)c3c2)cc(C(F)(F)F)c1` [Example 7, N-(3-(3-(3-cyano-phenyl)-1H-pyrrolo[2,3-b]-pyridin-5-yl)-5-(trifluoromethyl)-phenyl)acrylamide], the concentration for half-maximal inhibition (IC50) in test [1] and in test [2] was at most 1000 nM in each case.
On to `C=CC(=O)Nc1cc(-c2cnc3[nH]cc(-c4cncnc4)c3c2)cc(C(F)(F)F)c1` [Example 67, N-(3-(3-(pyrimidin-5-yl)-1H-pyrrolo-[2,3-b]pyridin-5-yl)-5-(trifluoro-methyl)phenyl)-acrylamide], for which the figures for the concentration for half-maximal inhibition (IC50) in test [1] and in test [2] were at most 100 nM and at most 1000 nM, respectively.
For `COc1cc(NC(=O)/C=C/CN(C)C)cc(-c2cnc3[nH]cc(-c4ccnc(C#N)c4)c3c2)c1` [Example 39, (E)-N-(3-(3-(2-cyanopyridin-4-yl)-1H-pyrrolo-[2,3-b]pyridin-5-yl)-5-methoxy-phenyl)-4-(dimethylamino)-but-2-enamide] the same measures were at most 100 nM and at most 1000 nM.
Regarding `CN(C)C/C=C/C(=O)Nc1cccc(-c2cnc3[nH]cc(-c4cncc(C#N)c4)c3c2)c1` [Example 11, (E)-N-(3-(3-(5-cyanopyridin-3-yl)-1H-pyrrolo-[2,3-b]pyridin-5-yl)phenyl)-4-(dimethylamino)-but-2-enamide], the IC50 in test [1] was at most 100 nM; in test [2], over 5000 nM.
For `CN(C)C/C=C/C(=O)Nc1cc(-c2cnc3[nH]cc(-c4ccncn4)c3c2)cc(C(F)(F)F)c1` [Example 49, (E)-4-(dimethyl-amino)-N-(3-(3-(pyrimidin-4-yl)-1H-pyrrolo[2,3-b]pyridin-5-yl)-5-(trifluoro-methyl)phenyl)-but-2-enamide] the same measures were at most 100 nM and at most 1000 nM.
For `COc1cc(NC(=O)/C=C/CN(C)C)cc(-c2cnc3[nH]cc(-c4ccnc(F)c4)c3c2)c1` [Example 38, (E)-4-(dimethyl-amino)-N-(3-(3-(2-fluoropyridin-4-yl)-1H-pyrrolo-[2,3-b]pyridin-5-yl)-5-methoxy-phenyl)but-2-enamide] the same measures were at most 100 nM and at most 1000 nM.
For `C=CC(=O)Nc1cc(-c2cnc3[nH]cc(-c4cccc(C#N)c4)c3c2)cnc1OC1CCOC1` (stereo not shown) [Example 5, N-(5-(3-(3-Cyanophenyl)-1H-pyrrolo[2,3-b]pyridin-5-yl)-2-((tetrahydrofuran-3-yl)oxy)pyridin-3-yl)acrylamide], in that order: at most 100 nM and 1000 to 5000 nM.
With `C=CC(=O)Nc1cc(-c2cnc3[nH]cc(-c4ccnc(NC)n4)c3c2)cc(C(F)(F)F)c1` [Example 3, N-(3-(3-(2-(Methylamino)pyrimidin-4-yl)-1H-pyrrolo[2,3-b]pyridin-5-yl)-5-(trifluoromethyl)phenyl)acrylamide], the IC50 in test [1] was at most 100 nM; in test [2] it was at most 1000 nM.
For `CN(C)C/C=C/C(=O)Nc1cc(-c2cnc3[nH]cc(-c4ccnc5[nH]ccc45)c3c2)cc(C(F)(F)F)c1` [Example 54, (E)-N-(3-(1H,1′H-[3,4′-bipyrrolo-[2,3-b]pyridin]-5-yl)-5-(trifluoro-methyl)phenyl)-4-(dimethylamino)-but-2-enamide], in that order: at most 1000 nM and 1000 to 5000 nM.
For `C=CC(=O)Nc1cccc(-c2cnc3[nH]cc(-c4ccnc(C#N)c4)c3c2C)c1` [Example 44, N-(3-(3-(2-cyano-pyridin-4-yl)-4-methyl-1H-pyrrolo[2,3-b]-pyridin-5-yl)-phenyl)acrylamide], in that order: at most 100 nM and at most 1000 nM.
